The results in this text go back to BindingDB's records for doi:10.1080/1475636021000005721 (Universit&Eacute, 2002).

pIC50: −log10 of the molar value.

Sequence of Serotonin N-acetyltransferase (Q16613 whole entry): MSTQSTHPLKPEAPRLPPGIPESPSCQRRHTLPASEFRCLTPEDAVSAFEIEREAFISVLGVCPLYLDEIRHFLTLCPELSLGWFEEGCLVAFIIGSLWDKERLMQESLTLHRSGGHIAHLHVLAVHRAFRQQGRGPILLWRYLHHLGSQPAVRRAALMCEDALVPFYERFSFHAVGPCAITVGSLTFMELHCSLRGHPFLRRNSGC

The target in the assay is Serotonin N-acetyltransferase (Homo sapiens, UniProt Q16613). The assay is described as follows: AANAT Assay. The settings on record: pH 6.8; 37 °C. How it is done:
The compounds were evaluated in a human serotonin N-acetyltransferase assay.
Usually pIC50 stands for the negative decadic logarithm of the IC50, by convention in mol/L. Lower therefore signals a large IC50. As to `COc1ccc2occ(CCNC(=O)CBr)c2c1` [AANAT Inhibitor, 8c], the pIC50 is 4.40.
For `O=C(CBr)NCCc1csc2ccc(F)cc12` [AANAT Inhibitor, 8h] the value was 6.41; for `O=C(CBr)NCCc1csc2ccc(O)cc12` [AANAT Inhibitor, 12d], 6.74.
On to `O=C(CBr)NCCc1csc2ccc(Br)cc12` [AANAT Inhibitor, 8g], for which the pIC50 was 5.42.
`COc1ccc2scc(CCNC(=O)CBr)c2c1` [AANAT Inhibitor, 8d] gave a pIC50 of 6.21.
In the case of `O=C(CBr)NCCc1csc2ccccc12` [AANAT Inhibitor, 8e] it was 6.17; in that of `CCc1ccc2scc(CCNC(=O)CBr)c2c1` [AANAT Inhibitor, 8i], 6.15; in that of `O=C(CBr)NCCc1c[nH]c2ccccc12`, 5.84.
